PMC10447463, “Data-mining unveils structure–property–activity correlation of viral infectivity enhancing self-assembling peptides” (Nature Communications, 2023)
Read-outs that look alike come from different tables or passages of the source.

How the values were obtained:
[1] = β-sheet content by ATR-FT-IR; assay type: physicochemical; details: for b -sheet / %: Fig. S7 panel A, β-sheet content by ATR-FT-IR; for beta sheet: peptides with TEM 2cat 0
Outline: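 First, PNF was ultrafiltered (3 kDa MWCO, 16200 x g, 45 min, 4 °C). Next, filtrate and unfiltered sample were lyophilized and taken up in DMSO. Then fluorescamine was added for 20 min at RT before reading ex 365/em 470 nm. β-sheet: ATR FT-IR of lyophilized 1 mg/mL PNF.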

[2] = Zeta-potential measurement; assay type: physicochemical
Outline: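 Charge on peptide aggregates was assessed by electrophoretic mobility in 1 mM KCl, converted per Smoluchowski. Prior aggregation: 1 mg/mL, pH 7.4 PBS, 1 d, RT.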

[3] = assay type: physicochemical; design: key to Fibril / Fibril Formation / TEM 2cat / Fibril: 1 = fibrils present; 0 non-fibrillar structures; details: for Fibril / Fibril Formation: 1 mg/mL, uranyl acetate stain, qualitative
[4] = Turbidity, derived count rate of scattered light; assay type: physicochemical; details: for Count Rate: derived count rate of scattered light (turbidity); for Log10 Count Rate: turbidity, derived count rate of scattered light, data of Figure 2D
[5] = Turbidity, derived count rate of scattered light; assay type: physicochemical; details: for Count Rate / kcps: derived count rate of scattered light at 633 nm, 173°, from zeta-potential measurement, 0.1 mg/mL in 1 mM KCl after 1 d at 1 mg/mL in PBS, turbidity / microscopic aggregation, mean of triplicate; for Zeta Count Rate: peptides with TEM 2cat 0
Outline: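 One-day room-temperature aggregation at 1 mg/mL in PBS (pH 7.4) preceded measurement; samples then went into 1 mM KCl. Triplicates per sample, two independent experiments averaged.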

[6] = zeta potential of peptide assemblies
[7] = zeta-potential of peptide, source data of Figure 2C
[8] = zeta-potential of the peptide assemblies, mean, Figure 3A source data
[9] = Fig S10 panel D, fibril category by TEM
[10] = FigS12 panel A, fibril category by TEM
[11] = TEM, 1 = fibrils present, 0 = non-fibrillar
[12] = TEM, 1 = fibrils present, 0 = non-fibrillar structures
[13] = Log10 of derived count rate of scattered light (turbidity)
[14] = log10 of derived count rate of scattered light (turbidity)
[15] = turbidity, Log10 of derived count rate of scattered light, Figure 3A source data
[16] = category: fibrils present or non-fibrillar

| Substance | b -sheet / % [1] [%] | Zeta-Pot. [2, 6] | Zeta-Potential / mV [2, 7] [mV] | Zeta-Potential / mV [2, 8] [mV] | TEM 2cat [3, 9] | TEM 2cat [3, 10] | Fibril ([3]; FigS12 panel B, TEM) | Fibril / Fibril Formation ([3]; TEM) | Fibril [3, 11] | Fibril [3, 12] | Count Rate [4] | Log10 Count Rate [4] | Log10 Count Rate [5, 13] | Count Rate / kcps [5] [kcps] | Log10 Count Rate [5, 14] | Log10 Count Rate [5, 15] | TEM 2cat [3, 16] | Zeta-Pot. [2] | also measured |
| --- | --- | --- | --- | --- | --- | --- | --- | --- | --- | --- | --- | --- | --- | --- | --- | --- | --- | --- | --- |
| KIKIQII | 44.64 | 5.61 | 6.302 | 5.61 | 1 | 1 | 1 | 1 | 1 | 1 | 1039 | 3.017 | 3.017 | 1039 | 3.017 | 3.017 | – | – | – |
| KIKIQIII | 45.8425 | 19.8 | 19.13 | 19.8 | 1 | – | – | 1 | 1 | 1 | 94.97 | 1.978 | 1.978 | 95 | 1.978 | 1.978 | 1 | – | Fibril ([3]; Fig S10 panel E): 1 |
| KIKIQIMQWN | 40.38 | – | 8.94 | 9.44 | 1 | – | – | 1 | 1 | 1 | 2202.7 | 3.343 | 3.343 | 2203 | 3.343 | 3.343 | 1 | 9.44 | – |
| KIKIQIMWNQ | 41.4 | – | 4.42 | 2.96 | 1 | – | – | 1 | 1 | 1 | 1887 | 3.2757 | 3.2757 | 1887 | 3.2757 | 3.2757 | 1 | 2.96 | – |
| KIKIQINMWQRGD | 47.72 | – | -0.495 | 1.69 | 0 | 0 | 0 | 0 | 0 | 0 | 2783 | 3.445 | 3.445 | 2783 | 3.445 | 3.445 | – | 1.69 | ß-sheet / % ([1]; ATR-FT-IR of lyophilised 1 mg/mL PNF solution, peak integral ratio 1625-1635 cm-1, measured once): 48%; Zeta pot. / mV ([2]; 1 mg/mL in PBS pH 7.4 from 10 mg/mL DMSO stock, 1 d RT, 60 µL diluted in 600 µL 1 mM KCl, Zetasizer Nano ZS, Smoluchowski, mean of triplicate): 1.7 mV; Log10 Count Rate ([5]; logarithm of count rate in kcps): 3.4 |
| KIKIQINMWWQ | 50.48 | – | 13.17 | 11.8 | 0 | – | – | 0 | 0 | 0 | 3893 | 3.59 | 3.59 | 3893 | 3.59 | 3.59 | 0 | 11.8 | beta sheet [1]: 50; Zeta Count Rate [5]: 3893 kcp |
| KIKIQINMWWWQ | 47.92 | – | 9.633 | 9.45 | 0 | – | – | 0 | 0 | 0 | 7596.3 | 3.8806 | 3.8806 | 7596 | 3.8806 | 3.8806 | 0 | 9.45 | beta sheet [1]: 48; Zeta Count Rate [5]: 7596 kcp |
| KIKIQIRGD | 47.12 | 6.43 | 4.47 | 6.43 | 1 | 1 | 1 | 1 | 1 | 1 | 114 | 2.057 | 2.057 | 114 | 2.057 | 2.057 | – | – | – |
